# How the values were obtained:
# [1] = Oral bioavailability in dog; format: ADME, organism-based, Canis lupus familiaris; settings: in vivo
# [2] = Oral bioavailability in monkey; format: ADME, organism-based, Macaca mulatta; settings: rhesus monkey, in vivo
# in vitro = settings: PAMPA, pH 6.5
# [3] = Cmax in dog at […], po by cassette assay; format: ADME, organism-based, Canis lupus familiaris; design: route oral; settings: in vivo
# in vivo [4] = settings: dog, iv, 1 mg/mL
# [5] = Bioavailability in dog at […], po by cassette assay; format: ADME, organism-based, Canis lupus familiaris; settings: in vivo
# in vivo [6] = settings: dog, iv, 1 mg/mL; remark: listed apart in the source
# [7] = AUC (0 to 24 hrs) in dog at […], po by cassette assay; format: ADME, organism-based, Canis lupus familiaris; design: time < 24 hr, route oral; settings: plasma
# [8] = Intrinsic clearance in monkey liver microsome; format: ADME, Macaca mulatta; settings: rhesus monkey, liver microsomes
# [9] = Bioavailability in dog at 0.2 mg/kg, po by cassette assay; format: ADME, organism-based, Canis lupus familiaris; settings: in vivo
# [10] = Terminal half life in dog at 0.1 mg/kg, iv by cassette assay; format: ADME, organism-based, Canis lupus familiaris; design: dose 0.1 mg/kg, route intravenous; settings: in vivo, read-out: beta t1/2 (converted)
# Rhesus monkey [11] = assay: (§1) Bioavailability in monkey at 0.32 mg/kg, po by cassette assay; format: ADME, organism-based, Macaca mulatta; settings: in vivo
# [12] = Terminal half life in monkey at 0.186 mg/kg, iv by cassette assay; format: ADME, organism-based, Macaca mulatta; design: dose 0.186 mg/kg, route intravenous; settings: rhesus monkey, in vivo, read-out: beta t1/2 (converted)
# [13] = Terminal half life in rat at 0.32 mg/kg, iv by cassette assay; format: ADME, organism-based; design: dose 0.32 mg/kg, route intravenous; settings: in vivo, read-out: beta t1/2 (converted)
# [14] = Total clearance in rat at 0.32 mg/kg, iv by cassette assay; format: ADME, organism-based; design: dose 0.32 mg/kg, route intravenous; settings: in vivo
# [15] = Intrinsic clearance in human liver microsome; format: ADME; settings: liver microsomes
# [16] = Total clearance in dog at 0.1 mg/kg, iv by cassette assay; format: ADME, organism-based, Canis lupus familiaris; design: dose 0.1 mg/kg, route intravenous; settings: in vivo
# Rhesus monkey [17] = assay: (§2) AUC (0 to 24 hrs) in monkey at 0.32 mg/kg, po by cassette assay; format: ADME, organism-based, Macaca mulatta, Plasma; design: time < 24 hr, dose 0.32 mg/kg, route oral; settings: in vivo, 24 h
# [18] = Cmax in dog at 2.0 mg/kg, po by cassette assay; format: ADME, organism-based, Canis lupus familiaris; design: dose 2 mg/kg, route oral; settings: in vivo
# [19] = AUC (0 to 24 hrs) in rat at 0.32 mg/kg, po by cassette assay; format: ADME, organism-based; design: time < 24 hr, dose 0.32 mg/kg, route oral; settings: plasma
# [20] = Cmax in rat at 0.32 mg/kg, po by cassette assay; format: ADME, organism-based; design: dose 0.32 mg/kg, route oral; settings: in vivo
# [21] = Bioavailability in rat at 0.32 mg/kg, po by cassette assay; format: ADME, organism-based; settings: in vivo
# [22] = Cmax in monkey at 0.32 mg/kg, po by cassette assay; format: ADME, organism-based, Macaca mulatta; design: dose 0.32 mg/kg, route oral; settings: rhesus monkey, in vivo
# [23] = AUC (0 to 24 hrs) in dog at 2.0 mg/kg, po by cassette assay; format: ADME, organism-based, Canis lupus familiaris; design: time < 24 hr, dose 2 mg/kg, route oral; settings: plasma
# [24] = as §1; format: ADME, organism-based, Macaca mulatta; settings: rhesus monkey, in vivo
# [25] = Cmax in dog at 0.1 mg/kg, po by cassette assay; format: ADME, organism-based, Canis lupus familiaris; design: dose 0.1 mg/kg, route oral; settings: in vivo
# [26] = AUC (0 to 24 hrs) in dog at 0.1 mg/kg, po by cassette assay; format: ADME, organism-based, Canis lupus familiaris; design: time < 24 hr, dose 0.1 mg/kg, route oral; settings: plasma
# [27] = Terminal half life in monkey at 0.32 mg/kg, iv by cassette assay; format: ADME, organism-based, Macaca mulatta; design: dose 0.32 mg/kg, route intravenous; settings: rhesus monkey, in vivo, read-out: beta t1/2 (converted)
# [28] = Intrinsic clearance in dog liver microsome; format: ADME, Canis lupus familiaris; settings: liver microsomes
# [29] = Bioavailability in dog at 0.1 mg/kg, po by cassette assay; format: ADME, organism-based, Canis lupus familiaris; settings: in vivo
# [30] = as §2; format: ADME, organism-based, Macaca mulatta, Plasma; design: time < 24 hr, dose 0.32 mg/kg, route oral; settings: rhesus monkey, plasma
# [31] = Total clearance in monkey at 0.32 mg/kg, iv by cassette assay; format: ADME, organism-based, Macaca mulatta; design: dose 0.32 mg/kg, route intravenous; settings: rhesus monkey, in vivo
# in vivo [32] = settings: dog, plasma, po, 1 mg/mL
# in vivo [33] = settings: dog, po, 1 mg/mL
# in vivo [34] = settings: dog, po, 1 mg/mL; remark: listed apart in the source
# [35] = Terminal half life in monkey at 0.83 mg/kg, iv by cassette assay; format: ADME, organism-based, Macaca mulatta; design: dose 0.83 mg/kg, route intravenous; settings: rhesus monkey, in vivo, read-out: beta t1/2 (converted)
# [36] = Bioavailability in rat at 1.0 mg/kg, po by cassette assay; format: ADME, organism-based; settings: in vivo
# [37] = Total clearance in monkey at 0.83 mg/kg, iv by cassette assay; format: ADME, organism-based, Macaca mulatta; design: dose 0.83 mg/kg, route intravenous; settings: rhesus monkey, in vivo
# [38] = AUC (0 to 24 hrs) […] at 1.0 mg/kg, po by cassette assay; format: ADME, organism-based; design: time < 24 hr, dose 1 mg/kg, route oral; settings: plasma
# [39] = Total clearance in dog at 0.83 mg/kg, iv by cassette assay; format: ADME, organism-based, Canis lupus familiaris; design: dose 0.83 mg/kg, route intravenous; settings: in vivo
# [40] = Terminal half life in rat at 0.83 mg/kg, iv by cassette assay; format: ADME, organism-based; design: dose 0.83 mg/kg, route intravenous; settings: in vivo, read-out: beta t1/2 (converted)
# [41] = Cmax […] at 1.0 mg/kg, po by cassette assay; format: ADME, organism-based; design: dose 1 mg/kg, route oral; settings: in vivo
# [42] = Cmax in monkey at 1.0 mg/kg, po by cassette assay; format: ADME, organism-based, Macaca mulatta; design: dose 1 mg/kg, route oral; settings: rhesus monkey, in vivo
# [43] = Intrinsic clearance in rat liver microsome; format: ADME; settings: liver microsomes
# [44] = AUC (0 to 24 hrs) in monkey at 1.0 mg/kg, po by cassette assay; format: ADME, organism-based, Macaca mulatta; design: time < 24 hr, dose 1 mg/kg, route oral; settings: rhesus monkey, plasma
# [45] = Total clearance in rat at 0.83 mg/kg, iv by cassette assay; format: ADME, organism-based; design: dose 0.83 mg/kg, route intravenous; settings: in vivo
# [46] = Cmax in rat at 1.0 mg/kg, po by cassette assay; format: ADME, organism-based; design: dose 1 mg/kg, route oral; settings: in vivo
# [47] = Terminal half life in dog at 0.83 mg/kg, iv by cassette assay; format: ADME, organism-based, Canis lupus familiaris; design: dose 0.83 mg/kg, route intravenous; settings: in vivo, read-out: beta t1/2 (converted)
# [48] = AUC (0 to 24 hrs) in rat at 1.0 mg/kg, po by cassette assay; format: ADME, organism-based; design: time < 24 hr, dose 1 mg/kg, route oral; settings: plasma
# [49] = Cmax in dog at 3.2 mg/kg, po by cassette assay; format: ADME, organism-based, Canis lupus familiaris; design: dose 3.2 mg/kg, route oral; settings: in vivo
# [50] = AUC (0 to 24 hrs) in dog at 3.2 mg/kg, po by cassette assay; format: ADME, organism-based, Canis lupus familiaris; design: time < 24 hr, dose 3.2 mg/kg, route oral; settings: plasma
# [51] = Bioavailability in monkey at 1.0 mg/kg, po by cassette assay; format: ADME, organism-based, Macaca mulatta; settings: rhesus monkey, in vivo
# [52] = Bioavailability in dog at 3.2 mg/kg, po by cassette assay; format: ADME, organism-based, Canis lupus familiaris; settings: in vivo
smiles,measurement,setting,value
O=S(=O)(Nc1ccc(CCNC[C@H](O)c2cccnc2)cc1)c1ccc(-c2nc(-c3ccc(C(F)(F)F)cc3)cs2)cc1,bioavailability,[1],27%
same,bioavailability,[2],4%
O=C(O)c1ccc(-c2ccc(CCNC[C@H](O)c3cccc(Cl)c3)cc2)cc1OC1CCCCC1,Papp,in vitro,> 30 ×10⁻⁶ cm/s
CC(C)Cc1cc(-c2ccc(CCNC[C@H](O)c3ccccc3)cc2)ccc1C(=O)O,Papp,in vitro,26 ×10⁻⁶ cm/s
CC(C)Sc1cc(-c2ccc(CCNC[C@H](O)c3ccccc3)cc2)ccc1C(=O)O,Papp,in vitro,10 ×10⁻⁶ cm/s
O=C(O)c1ccc(-c2ccc(CCNC[C@H](O)c3cccc(Cl)c3)cc2)cc1,Cmax,[3],111 ng/mL
same,half-life,in vivo [4],12.3 h
same,bioavailability,[5],> 95%
same,clearance,in vivo [6],4 mL/min/kg
same,AUC(0-t) at 24 h,[7],1980 ng·h/mL
CC(C)Oc1cc(-c2ccc(CCNC[C@H](O)c3ccccc3)cc2)ccc1C(=O)O,CLint scaled,[8],< 1 mL/min/kg
same,bioavailability,[9],68%
same,half-life,[10],14.5 h
same,F,Rhesus monkey [11],62%
same,half-life,[12],22.2 h
same,half-life,[13],9.5 h
same,clearance,[14],7.5 mL/min/kg
same,CLint scaled,[15],< 1 mL/min/kg
same,clearance,[16],4.8 mL/min/kg
same,AUC,Rhesus monkey [17],209 ng·h/mL
same,Cmax,[18],25 ng/mL
same,AUC(0-t) at 24 h,[19],565 ng·h/mL
same,Cmax,[20],94.7 ng/mL
same,bioavailability,[21],80%
same,Papp,in vitro,18 ×10⁻⁶ cm/s
same,Cmax,[22],185 ng/mL
same,AUC(0-t) at 24 h,[23],438 ng·h/mL
COc1cc(-c2ccc(CCNC[C@H](O)c3cccc(Cl)c3)cc2)ccc1C(=O)O,Papp,in vitro,3.3 ×10⁻⁶ cm/s
CC(C)Oc1cc(-c2ccc(CCNC[C@H](O)c3cccc(Cl)c3)cc2)ccc1C(=O)O,half-life,[10],9.9 h
same,bioavailability,[24],83%
same,Cmax,[25],13 ng/mL
same,half-life,[13],4.8 h
same,clearance,[14],4.4 mL/min/kg
same,CLint scaled,[15],< 1 mL/min/kg
same,AUC(0-t) at 24 h,[26],149 ng·h/mL
same,half-life,[27],18.6 h
same,CLint scaled,[28],< 1 mL/min/kg
same,clearance,[16],4.9 mL/min/kg
same,bioavailability,[29],45%
same,AUC(0-t) at 24 h,[30],4980 ng·h/mL
same,AUC(0-t) at 24 h,[19],700 ng·h/mL
same,Cmax,[20],146 ng/mL
same,bioavailability,[21],61%
same,Papp,in vitro,> 30 ×10⁻⁶ cm/s
same,Cmax,[22],171 ng/mL
same,clearance,[31],0.9 mL/min/kg
O=C(O)c1ccc(-c2ccc(CCNC[C@H](O)c3ccccc3)cc2)cc1OC1CCCCC1,Papp,in vitro,> 30 ×10⁻⁶ cm/s
O=C(O)c1ccc(Oc2ccc(CCNC[C@H](O)c3cccc(Cl)c3)cc2)cc1,half-life,in vivo [4],6.2 h
same,clearance,in vivo [6],4.1 mL/min/kg
same,AUC(0-t) at 24 h,in vivo [32],2470 ng·h/mL
same,Cmax,in vivo [33],236 ng/mL
same,bioavailability,in vivo [34],40%
CCOC(=O)COc1ccc2c(c1)C[C@@H](NC[C@H](O)c1cccc(Cl)c1)CCC2,half-life,[35],2.28 h
same,bioavailability,[36],29%
same,clearance,[37],11.8 mL/min/kg
same,AUC(0-t) at 24 h,[38],4100 ng·h/mL
same,clearance,[39],3.7 mL/min/kg
same,half-life,[40],0.3 h
same,Cmax,[41],1340 ng/mL
same,CLint scaled,[15],18.2 mL/min/kg
same,Cmax,[42],184 ng/mL
same,CLint scaled,[43],35.4 mL/min/kg
same,AUC(0-t) at 24 h,[44],398 ng·h/mL
same,CLint scaled,[28],35.4 mL/min/kg
same,clearance,[45],47.9 mL/min/kg
same,Cmax,[46],38 ng/mL
same,half-life,[47],1.63 h
same,AUC(0-t) at 24 h,[48],83 ng·h/mL
same,Cmax,[49],2070 ng/mL
same,AUC(0-t) at 24 h,[50],10600 ng·h/mL
same,bioavailability,[51],35%
same,bioavailability,[52],73%
O=C(O)c1cccc(-c2cccc(NCCNC[C@H](O)c3cccc(Cl)c3)c2)c1 [SOLABEGRON],bioavailability,[2],46%

# — ChEMBL document CHEMBL1142325, “Discovery of a novel series of biphenyl benzoic acid derivatives as potent and selective human beta3-adrenergic receptor agonists with good oral bioavailability. Part I” (J Med Chem, 2008)
